{"source": "patent US12090029B2", "about": "“Devices and methods for enhancing immunogenicity to intradermal vaccination” (VERSITECH LIMITED, priority 2016, dated 2024)", "origin": "cited, not measured here", "key": {"influenza vaccination": {"system": "influenza vaccination", "conditions": "elderly subjects"}, "influenza vaccine": {"system": "influenza vaccine", "conditions": "mouse model, imiquimod cream applied (Zhang et al., 2014)"}, "[1]": {"system": "vaccine influenza strains", "conditions": "young healthy individuals, topical application before intradermal trivalent influenza vaccine (Hung et al., 2016)"}}}
{"molecule": "CC(C)Cn1cnc2c(N)nc3ccccc3c21", "note": "[imiquimod]", "values": [{"measurement": "hospitalizations for influenza or pneumonia", "setting": "influenza vaccination; relative to a vaccine-only group", "value": "fewer"}, {"measurement": "seroconversion rate", "setting": "influenza vaccination; sustained to 1 year, relative to a vaccine-only group", "value": "earlier and better"}, {"measurement": "immunogenicity of influenza vaccination", "setting": "influenza vaccination; topical pre-treatment, relative to a vaccine-only group (Hung et al., 2014)", "value": "significantly expedited, augmented, and prolonged"}, {"measurement": "immunogenicity of influenza vaccine", "setting": "influenza vaccine", "value": "enhanced"}, {"measurement": "immunogenicity against the non-vaccine strains", "setting": "[1]", "value": "increased"}, {"measurement": "immunogenicity against the vaccine influenza strains", "setting": "[1]", "value": "significantly improved"}]}
